Reference: patent US20240254118A1, “PRMT5 INHIBITORS AND USES THEREOF” (Gilead Sciences, Inc., priority 2022, published 2024)

Assays:
[1] = system: SDMA signal (PRMT5 inhibition) in HCT116 MTAP-deleted cells; experiment: Symmetric di-methyl arginine image-based high content screen assay (SDMA assay), HCT116 MTAP-deleted; format: cell-based; conditions: SDMA assay; for EC50: Homo sapiens, HCT-116, 72 h, 3 days of treatment, cell line not given, taken as HCT116 MTAP-deleted, read-out: EC50 (SDMA assay); for EC50 selectivity (SDMA assay): taken as HCT116 WT versus MTAP-deleted
Procedure: Symmetric di-methyl arginine image-based high content screen assay (SDMA assay) was performed in HCT116 WT and HCT116 MTAP-deleted cell lines to measure Symmetric Di-methyl Arginine (SDMA) signal reduction after selective PRMT5 inhibition in the MTAP-deleted cells.
Briefly, the same compound plates were generated as mentioned in the previous section of Cell viability assay on Day −1.
On Day 3, the cells were fixed by adding 45 μl of 8% neutralized formalin solution to each well using EL460 liquid dispenser 5 μl cassette and the cells were incubated for 30 minutes at room temperature. The formalin solution was washed off with […] phosphate buffered saline (dPBS), the 0.1% Triton X-100 solution in dPBS was used to permeabilize the cells for 15 minutes at room temperature. The triton solution was aspirated, 50 μl of Odyssey Blocking buffer+0.05% Tween20 was added and the plate was incubated at room temperature for 30 minutes.
The blocking solution was removed, a 20 μl of SDMA antibody (Cell Signaling Technology, Cat no. 13222) diluted 1:500 in Odyssey Blocking buffer+0.05% Tween20 was added and the plate was incubated at 4° C. overnight. Next day, the primary SDME antibody solution was washed from each well three times with 0.05% Tween20 in dPBS (PBST).
A 30 μl of the secondary antibody, a Goat anti-Rabbit Alexa Fluor Plus 488 (Invitrogen, Cat no. PIA32731) was diluted 1:500 in Odyssey Blocking buffer+0.05% Tween20 and the plate was incubated for 1.5 hours in dark at room temperature. The secondary antibody solution was removed, 30 μl of 5 mg/ml DAPI solution diluted 1:2000 in dPBS was added and the plate was incubated for 30 minutes in dark at room temperature. The DAPI solution was aspirated and the wells were washed six times with dPBS.
The SDMA signal and DAPI signal per cell were counted using a Cellomics CX7 LZR instrument reading under 488 and 405 nm laser, respectively. The SDMA signal was quantified by mean average intensity per cell from Alexa Fluor Plus 488 after the cell was defined with DAPI.

[2] = system: HCT116 MTAP-deleted cells; experiment: Cell viability assay (CellTiter-Glo, 7 days), HCT116 MTAP-deleted; conditions: Homo sapiens, HCT-116, 168 h

| EC50 [1] | EC50 selectivity (SDMA assay) [1] | Structure (SMILES) | CC50 [2] |
| --- | --- | --- | --- |
| < 1 nM | 137 | C[C@H]1CN(N(Cc2ccc(C(F)(F)F)cn2)C(=O)c2ccc3nc(N)c4cnn(C)c4c3c2)C(=O)O1 (single isomer, unassigned) [Example 8] | < 100 nM |
| < 1 nM | 180 | C[C@@H]1CN(N(Cc2ccc(C(F)(F)F)cn2)C(=O)c2ccc3nc(N)c4cnn(C)c4c3c2)C(=O)O1 (single isomer, unassigned) [Example 9] | < 100 nM |
| < 1 nM | 122 | CC(=O)N(C)N(Cc1nc2cc(C(F)(F)F)ccc2s1)C(=O)c1ccc2nc(N)c3cnn(C)c3c2c1 [Example 1] | < 100 nM |
| < 1 nM | 25 | Cn1ncc2c(N)nc3ccc(C(=O)N(Cc4ccc(C(F)(F)F)cc4F)N4CCCCC4=O)cc3c21 [Example 2, 4-amino-N-(2-fluoro-4-(trifluoromethyl)benzyl)-1-methyl-N-(2-oxopiperidin-1-yl)-1H-pyrazolo[4,3-c]quinoline-8-carboxamide] | < 100 nM |
| < 1 nM | 123 | Cn1ncc2c(N)nc3ccc(C(=O)N(Cc4ccc(C(F)(F)F)cc4)N4CCCOC4=O)cc3c21 [Example 3, 4-amino-1-methyl-N-(2-oxo-1,3-oxazinan-3-yl)-N-(4-(trifluoromethyl)benzyl)-1H-pyrazolo[4,3-c]quinoline-8-carboxamide] | < 100 nM |
|  |  | CN(C(=O)C1CC1)N(Cc1ccc(C(F)(F)F)cn1)C(=O)c1cc2c(cn1)nc(N)c1cnn(C)c12 [Example 422, 4-amino-N′-(cyclopropanecarbonyl)-N′,1-dimethyl-N-((5-(trifluoromethyl)pyridin-2-yl)methyl)-1H-pyrazolo[4,3-c][1,7]naphthyridine-8-carbohydrazide] | 100 to 1000 nM |
|  |  | CC(=O)N(C)N(Cc1nc2cc(F)c(F)cc2n1C)C(=O)c1ccc2nc(N)c3cnn(C)c3c2c1 [Example 424, N′-acetyl-4-amino-N-((5,6-difluoro-1-methyl-1H-benzo[d]imidazol-2-yl)methyl)-N′,1-dimethyl-1H-pyrazolo[4,3-c]quinoline-8-carbohydrazide] | < 100 nM |
|  |  | CC(=O)N(C)N(Cc1ccn(-c2ccc(F)cc2)n1)C(=O)c1cc2c(cc1F)nc(N)c1cnn(C)c12 [Example 425, N′-acetyl-4-amino-7-fluoro-N-((1-(4-fluorophenyl)-1H-pyrazol-3-yl)methyl)-N′,1-dimethyl-1H-pyrazolo[4,3-c]quinoline-8-carbohydrazide] | < 100 nM |
|  |  | CC(=O)N(C)N(Cc1nc2ccc(Cl)cc2n1C)C(=O)c1ccc2nc(N)c3cnn(C)c3c2c1 [Example 426, N′-acetyl-4-amino-N-((6-chloro-1-methyl-1H-benzo[d]imidazol-2-yl)methyl)-N′,1-dimethyl-1H-pyrazolo[4,3-c]quinoline-8-carbohydrazide] | < 100 nM |
|  |  | Cn1ncc2c(N)nc3cc(F)c(C(=O)N(Cc4ccc(C(F)(F)F)cn4)N4CCOC(C(F)(F)F)C4)cc3c21 (stereo not shown) [Example 427, 4-amino-7-fluoro-1-methyl-N-(2-(trifluoromethyl)morpholino)-N-((5-(trifluoromethyl)pyridin-2-yl)methyl)-1H-pyrazolo[4,3-c]quinoline-8-carboxamide] | < 100 nM |
|  |  | Cn1ncc2c(N)nc3ccc(C(=O)N(Cc4ccc(C(F)(F)F)cn4)N4CCOC(C(F)(F)F)C4)cc3c21 (stereo not shown) [Example 428, 4-amino-1-methyl-N-(2-(trifluoromethyl)morpholino)-N-((5-(trifluoromethyl)pyridin-2-yl)methyl)-1H-pyrazolo[4,3-c]quinoline-8-carboxamide] | 100 to 1000 nM |
|  |  | CC(=O)N(C)N(Cc1nc(-c2ccccc2)cs1)C(=O)c1ccc2nc(N)c3cnn(C)c3c2c1 [Example 429, N′-acetyl-4-amino-N′,1-dimethyl-N-((4-phenylthiazol-2-yl)methyl)-1H-pyrazolo[4,3-c]quinoline-8-carbohydrazide] | < 100 nM |
|  |  | CC(=O)N(C)N(Cc1cnn(-c2ccc(C(F)(F)F)cc2)c1)C(=O)c1ccc2nc(N)c3cnn(C)c3c2c1 [Example 430, N′-acetyl-4-amino-N′,1-dimethyl-N-((1-(4-(trifluoromethyl)phenyl)-1H-pyrazol-4-yl)methyl)-1H-pyrazolo[4,3-c]quinoline-8-carbohydrazide] | 100 to 1000 nM |
|  |  | CC(=O)N(C)N(Cc1nc2ccccc2n1C(F)F)C(=O)c1ccc2nc(N)c3cnn(C)c3c2c1 [Example 431, N′-acetyl-4-amino-N-((1-(difluoromethyl)-1H-benzo[d]imidazol-2-yl)methyl)-N′,1-dimethyl-1H-pyrazolo[4,3-c]quinoline-8-carbohydrazide] | 100 to 1000 nM |
|  |  | CC(=O)N(C)N(Cc1cnc(-c2ccccc2)n1C)C(=O)c1ccc2nc(N)c3cnn(C)c3c2c1 [Example 433, N′-acetyl-4-amino-N′,1-dimethyl-N-((1-methyl-2-phenyl-1H-imidazol-5-yl)methyl)-1H-pyrazolo[4,3-c]quinoline-8-carbohydrazide] | < 100 nM |
|  |  | Cn1ncc2c(N)nc3ccc(C(=O)N(Cc4ccn(-c5ccccc5F)n4)NC(=O)C4CC4)cc3c21 [Example 434, 4-amino-N′-(cyclopropanecarbonyl)-N-((1-(2-fluorophenyl)-1H-pyrazol-3-yl)methyl)-1-methyl-1H-pyrazolo[4,3-c]quinoline-8-carbohydrazide] | < 100 nM |
|  |  | CC(=O)N(C)N(Cc1ccn(-c2cccc(F)c2)n1)C(=O)c1ccc2nc(N)c3cnn(C)c3c2c1 [Example 435, N′-acetyl-4-amino-N-((1-(3-fluorophenyl)-1H-pyrazol-3-yl)methyl)-N′,1-dimethyl-1H-pyrazolo[4,3-c]quinoline-8-carbohydrazide] | < 100 nM |
|  |  | CC(=O)N(C)N(Cc1ccn(-c2ccccc2F)n1)C(=O)c1ccc2nc(N)c3cnn(C)c3c2c1 [Example 436, N′-acetyl-4-amino-N-((1-(2-fluorophenyl)-1H-pyrazol-3-yl)methyl)-N′,1-dimethyl-1H-pyrazolo[4,3-c]quinoline-8-carbohydrazide] | < 100 nM |
|  |  | CC(=O)N(C)N(Cc1ccn(-c2ccc(F)cc2F)n1)C(=O)c1ccc2nc(N)c3cnn(C)c3c2c1 [Example 440, N′-acetyl-4-amino-N-((1-(2,4-difluorophenyl)-1H-pyrazol-3-yl)methyl)-N′,1-dimethyl-1H-pyrazolo[4,3-c]quinoline-8-carbohydrazide] | < 100 nM |
|  |  | CC(=O)N(C)N(Cc1ccn(-c2c(F)cccc2F)n1)C(=O)c1ccc2nc(N)c3cnn(C)c3c2c1 [Example 441, N′-acetyl-4-amino-N-((1-(2,6-difluorophenyl)-1H-pyrazol-3-yl)methyl)-N′,1-dimethyl-1H-pyrazolo[4,3-c]quinoline-8-carbohydrazide] | < 100 nM |
|  |  | CN(C(=O)C1CC1)N(Cc1ncc(C(F)(F)F)cc1Cl)C(=O)c1ccc2nc(N)c3cnn(C)c3c2c1 [Example 446, 4-amino-N-((3-chloro-5-(trifluoromethyl)pyridin-2-yl)methyl)-N′-(cyclopropanecarbonyl)-N′,1-dimethyl-1H-pyrazolo[4,3-c]quinoline-8-carbohydrazide] | < 100 nM |
